# Values joined by “and” are separate entries in the source; they are usually repeats but may differ in a detail not shown here. Identical values can stand only once. Toxic doses and inconclusive results are not listed.
# System: L1210 leukemia ip in BDF1 mice, survival T/C
# Test: NCI In Vivo Anticancer Drug Screen. Data for tumor model L1210 Leukemia (intraperitoneal) in B6D2F1 (BDF1) mice
# Details: endpoint: mean survival time, higher = longer survival
# Method in brief: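 Survival endpoint. Drug-treated group vs vehicle group, expressed as T divided by C. Tumor passaged by transplantation.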
# [1] = dose: 100.0 mg/kg/injection, schedule: Q01DX001 (ip), vehicle: Klucel (hydroxypropylcellulose) (HPC)
# [2] = dose: 100.0 mg/kg/injection, schedule: Q04DX003 (ip), vehicle: Klucel (hydroxypropylcellulose) (HPC)
# [3] = dose: 200.0 mg/kg/injection, schedule: Q01DX001 (ip), vehicle: Klucel (hydroxypropylcellulose) (HPC)
# [4] = dose: 200.0 mg/kg/injection, schedule: Q04DX003 (ip), vehicle: Klucel (hydroxypropylcellulose) (HPC)
# [5] = dose: 400.0 mg/kg/injection, schedule: Q01DX001 (ip), vehicle: Klucel (hydroxypropylcellulose) (HPC)
# [6] = dose: 400.0 mg/kg/injection, schedule: Q04DX003 (ip), vehicle: Klucel (hydroxypropylcellulose) (HPC)
# [7] = dose: 75.0 mg/kg/injection, schedule: Q01DX001 (ip), vehicle: saline
# [8] = dose: 100.0 mg/kg/injection, schedule: Q04DX002 (ip), vehicle: saline with Tween-80
# [9] = dose: 200.0 mg/kg/injection, schedule: Q04DX002 (ip), vehicle: saline with Tween-80
# [10] = dose: 400.0 mg/kg/injection, schedule: Q04DX002 (ip), vehicle: saline with Tween-80
# [11] = dose: 100.0 mg/kg/injection, schedule: Q01DX009 (ip), vehicle: Klucel (hydroxypropylcellulose) (HPC)
# [12] = dose: 200.0 mg/kg/injection, schedule: Q01DX009 (ip), vehicle: Klucel (hydroxypropylcellulose) (HPC)
# [13] = dose: 100.0 mg/kg/injection, schedule: Q04DX003 (ip), vehicle: saline with Tween-80
# [14] = dose: 200.0 mg/kg/injection, schedule: Q04DX003 (ip), vehicle: saline with Tween-80
# [15] = dose: 400.0 mg/kg/injection, schedule: Q04DX003 (ip), vehicle: saline with Tween-80
# [16] = dose: 400.0 mg/kg/injection, schedule: Q01DX009 (ip), vehicle: Klucel (hydroxypropylcellulose) (HPC)
# [17] = dose: 100.0 mg/kg/injection, schedule: Q01DX001 (ip), vehicle: saline
# [18] = dose: 200.0 mg/kg/injection, schedule: Q01DX001 (ip), vehicle: saline
compound,measurement,setting,value
CC(=O)Nc1nc(Cl)c(N)c(SCc2ccccc2)n1,T/C,[1],98 % of control
same,T/C,[2],91 % of control
same,T/C,[3],98 % of control
same,T/C,[4],92 % of control
same,T/C,[5],98 % of control
same,T/C,[6],92 % of control
OCC1CC2CC(O)C1C2 (stereo unspecified),T/C,[7],100 % of control and 110 % of control
same,T/C,"dose: 150.0 mg/kg/injection, schedule: Q01DX001 (ip), vehicle: saline",108 % of control
Cc1cc2c(N)[nH]c(=O)nc2s1,T/C,"dose: 100.0 mg/kg/injection, schedule: Q04DX003 (ip), vehicle: water",90 % of control
same,T/C,"dose: 200.0 mg/kg/injection, schedule: Q04DX003 (ip), vehicle: water",93 % of control
CCOC(=O)C(Cc1ccccc1)C1=NC(C)(C)CC(C)O1 (stereo unspecified),T/C,"dose: 10.0 mg/kg/injection, schedule: Q01DX009 (ip), vehicle: alcohol",100 % of control
same,T/C,"dose: 200.0 mg/kg/injection, schedule: Q01DX009 (ip), vehicle: alcohol",104 % of control
same,T/C,"dose: 400.0 mg/kg/injection, schedule: Q01DX009 (ip), vehicle: alcohol",102 % of control
COc1ccc(CN(CCc2ccc(O)cc2)C(=O)C(F)(F)F)cc1O,T/C,[1],91 % of control
same,T/C,[3],89 % of control
same,T/C,[5],87 % of control
N#CCNC(=O)c1ccc(I)cc1,T/C,[1],111 % of control
same,T/C,[3],95 % of control
same,T/C,[5],106 % of control
CCOC(=O)c1cc2c([nH]1)CCCC2,T/C,[8],100 % of control
same,T/C,[9],94 % of control
same,T/C,[10],97 % of control
Cc1ccc2c(c1)C1CCC3(CC1OC2(C)C)OC(C)(C)c1cc(C)ccc13 (stereo unspecified),T/C,[11],95 % of control
same,T/C,[2],105 % of control
same,T/C,[12],89 % of control
same,T/C,[4],95 % of control
same,T/C,[6],95 % of control
C=CN(C=C)P(=O)(C1C(=O)C(C(=O)OCC)C(c2ccc(OC(C)=O)cc2)C(C(=O)OCC)C1=O)C1C(=O)C(C(=O)OCC)C(c2ccc(OC(C)=O)cc2)C(C(=O)OCC)C1=O (stereo unspecified),T/C,[13],97 % of control
same,T/C,[14],96 % of control
same,T/C,[15],100 % of control
CN(Cc1cc(Cl)cc(Cl)c1O)C1CC2CCC1(C)C2(C)C (stereo unspecified),T/C,"dose: 25.0 mg/kg/injection, schedule: Q04DX002 (ip), vehicle: Klucel (hydroxypropylcellulose) (HPC)",96 % of control
same,T/C,"dose: 50.0 mg/kg/injection, schedule: Q04DX002 (ip), vehicle: Klucel (hydroxypropylcellulose) (HPC)",103 % of control
same,T/C,[11],90 % of control
same,T/C,"dose: 100.0 mg/kg/injection, schedule: Q04DX002 (ip), vehicle: Klucel (hydroxypropylcellulose) (HPC)",92 % of control
same,T/C,[12],88 % of control
same,T/C,[16],103 % of control
Oc1ccc(O)c2c1CNCC2O (stereo unspecified),T/C,[17],97 % of control
same,T/C,[18],104 % of control
CC(NC(=O)Oc1ccccc1)Oc1ccccc1 (stereo unspecified),T/C,[13],96 % of control
same,T/C,[14],101 % of control
same,T/C,[15],96 % of control
COc1ccccc1CN1CCCN(Cc2ccccc2OC)C1c1c(O)ccc2ccccc12,T/C,"dose: 100.0 mg/kg/injection, schedule: Q01DX001 (ip), vehicle: carboxymethylcellulose (CMC)",91 % of control
same,T/C,"dose: 200.0 mg/kg/injection, schedule: Q01DX001 (ip), vehicle: carboxymethylcellulose (CMC)",91 % of control
same,T/C,"dose: 400.0 mg/kg/injection, schedule: Q01DX001 (ip), vehicle: carboxymethylcellulose (CMC)",91 % of control
Clc1ccc(N=CC2CCC=CO2)cc1 (stereo unspecified),T/C,"dose: 222.0 mg/kg/injection, schedule: Q01DX Z (ip), vehicle: saline",92 % of control
same,T/C,"dose: 333.0 mg/kg/injection, schedule: Q01DX Z (ip), vehicle: saline",95 % of control
same,T/C,"dose: 500.0 mg/kg/injection, schedule: Q01DX Z (ip), vehicle: saline",92 % of control
CCCCN(C)c1ccc(N=Nc2cc(Cl)ccc2Cl)cc1,T/C,[13],98 % of control
same,T/C,[15],86 % of control
CCOC(=O)c1ccc(N(CCOS(C)(=O)=O)CCOS(C)(=O)=O)cc1,T/C,"dose: 7.1 mg/kg/injection, schedule: Q01DX015 (ip), vehicle: saline",98 % of control
same,T/C,"dose: 10.0 mg/kg/injection, schedule: Q01DX015 (ip), vehicle: saline",102 % of control
same,T/C,"dose: 16.0 mg/kg/injection, schedule: Q01DX015 (ip), vehicle: saline",108 % of control
same,T/C,"dose: 25.0 mg/kg/injection, schedule: Q01DX015 (ip), vehicle: saline",113 % of control
same,T/C,[7],109 % of control
same,T/C,"dose: 100.0 mg/kg/injection, schedule: Q01DX015 (ip), vehicle: saline",87 % of control
same,T/C,"dose: 300.0 mg/kg/injection, schedule: Q01DX001 (ip), vehicle: saline",120 % of control
same,T/C,"dose: 600.0 mg/kg/injection, schedule: Q01DX001 (ip), vehicle: saline",122 % of control
same,T/C,"dose: 1000.0 mg/kg/injection, schedule: Q01DX001 (ip), vehicle: saline",116 % of control
N#C/C(=C\c1c[nH]c2ccccc12)C(N)=O,T/C,"dose: 50.0 mg/kg/injection, schedule: Q04DX003 (ip), vehicle: saline",104 % of control
same,T/C,[13],93 % of control
same,T/C,"dose: 100.0 mg/kg/injection, schedule: Q04DX003 (ip), vehicle: saline",107 % of control
same,T/C,[14],104 % of control
same,T/C,"dose: 200.0 mg/kg/injection, schedule: Q04DX003 (ip), vehicle: saline",95 % of control
same,T/C,[15],96 % of control
same,T/C,"dose: 400.0 mg/kg/injection, schedule: Q04DX003 (ip), vehicle: saline",97 % of control
CC(C)(C)[Si](C)(C)OC1CCP(C)(=S)CC1 (stereo unspecified),T/C,[8],98 % of control
same,T/C,[9],91 % of control
same,T/C,[10],95 % of control
CCOC(=N)CC(O)C(Cl)(Cl)Cl (stereo unspecified),T/C,[8],99 % of control
same,T/C,[9],103 % of control
same,T/C,[10],92 % of control
CCOC(=O)/C(C#N)=C/c1cccn1Cc1cc(OC)cc(OC)c1,T/C,"dose: 25.0 mg/kg/injection, schedule: Q04DX002 (ip), vehicle: saline",111 % of control
same,T/C,"dose: 50.0 mg/kg/injection, schedule: Q04DX002 (ip), vehicle: saline",101 % of control
same,T/C,"dose: 100.0 mg/kg/injection, schedule: Q04DX002 (ip), vehicle: saline",94 % of control
OCC(O)C(O)C(O)C(O)C1SCCS1 (stereo unspecified),T/C,[11],88 % of control
same,T/C,[2],98 % of control and 103 % of control and 93 % of control
same,T/C,[12],89 % of control
same,T/C,[4],103 % of control and 93 % of control
same,T/C,[16],100 % of control
same,T/C,[6],115 % of control and 88 % of control
O=C(O)C(CCO)c1ccccc1 (stereo unspecified),T/C,[8],95 % of control
same,T/C,[9],100 % of control
same,T/C,[10],95 % of control
Cc1ccc(S(=O)(=O)N(C)CCCCC(=O)O)cc1,T/C,"dose: 100.0 mg/kg/injection, schedule: Q01DX009 (ip), vehicle: saline with Tween-80",90 % of control
same,T/C,"dose: 200.0 mg/kg/injection, schedule: Q01DX009 (ip), vehicle: saline with Tween-80",104 % of control
same,T/C,"dose: 400.0 mg/kg/injection, schedule: Q01DX009 (ip), vehicle: saline with Tween-80",93 % of control
Nc1nc(N)c2cc(N3CCCC3c3ccc(Cl)cc3)ccc2n1 (stereo unspecified),T/C,"dose: 25.0 mg/kg/injection, schedule: Q01DX009 (ip), vehicle: water",87 % of control
CSCSCC(NC(=O)c1ccccc1)C(=O)O (stereo unspecified),T/C,[17],104 % of control
same,T/C,"dose: 150.0 mg/kg/injection, schedule: Q04DX003 (ip), vehicle: saline",90 % of control
same,T/C,[18],104 % of control
same,T/C,"dose: 300.0 mg/kg/injection, schedule: Q04DX003 (ip), vehicle: saline",87 % of control
same,T/C,"dose: 400.0 mg/kg/injection, schedule: Q01DX001 (ip), vehicle: saline",98 % of control
same,T/C,"dose: 600.0 mg/kg/injection, schedule: Q04DX003 (ip), vehicle: saline",92 % of control
CCCCS(=O)(=O)Nc1ccc(Nc2c3ccccc3nc3ccccc23)c(OC)c1,T/C,"dose: 12.5 mg/kg/injection, schedule: Q01DX009 (ip), vehicle: saline",150 % of control
same,T/C,"dose: 25.0 mg/kg/injection, schedule: Q01DX009 (ip), vehicle: saline",153 % of control
same,T/C,"dose: 50.0 mg/kg/injection, schedule: Q01DX009 (ip), vehicle: Klucel (hydroxypropylcellulose) (HPC)",154 % of control

# Source: PubChem BioAssay AID248 (DTP/NCI, 2004)
